Patent US8465756B2, “Immunogenic peptides of tumor associated antigen L6 and uses thereof in cancer therapy” (National Health Research Institutes, priority 2009, dated 2013)

Experiments:
[1] = tested on: T cells (spleen cells from HLA-A2 transgenic mice); assay: IFN-γ ELISpot on spleen cells of peptide-immunized HLA-A2 transgenic mice; type: in vivo, HLA-A2 transgenic mouse; conditions: 50 μg peptide with PADRE peptide and IFA s.c. twice; spleen cells cultured with 10 μg/mL test peptide; FIG. 1
Protocol: FIG. 1 is a chart showing induction of interferon γ in spleen cells from HLA-A2 transgenic mice immunized with a number of immunogenic peptides from TAL6: peptides 1 (SEQ ID NO:1), 2 (SEQ ID NO:2), 5 (SEQ ID NO:4), 6 (SEQ ID NO:5), 7 (SEQ ID NO:6), 8 (SEQ ID NO:7), 9 (SEQ ID NO:8), 11 (SEQ ID NO: 10), and 14 (SEQ ID NO:12). “NP” refers to absence of any peptide.
(§1) One mg of each of the peptides (test peptides) that were identified as HLA-A2-restricted T-cell epitopes in Examples 1 above and 1 mg of PADRE peptide ([…]; SEQ ID NO:25), both in 0.5 ml PBS, were mixed together with 0.5 mL incomplete Freund's adjuvant (IFA). An EBV-derived HLA-A2-restricted epitope, i.e., […](GLC; SEQ ID NO:35), was used as a positive control and an EBV-derived HAL-A24-restricted epitope, i.e., TYGPVFMCL (TYG; SEQ ID NO:37), was used as negative control. 100 μl of the mixture (containing 50 μg of a test peptide) was injected s.c. into the tail base of a HLA-A2 transgenic mouse, once every 7 days for two times. Spleen cells were harvested from the treated mice 7 days after the second injection and cultured in the presence of 10 μg/mL of the test peptide. The supernatant of the cell culture was subjected to an ELISpot assy to examine the amount of IFN-γ contained therein, which correlates to the activity of the test peptide for stimulating T cells.

[2] = tested on: splenocytes from pEK/TAL6-immunized mice; assay: IFN-γ ELISpot on splenocytes of pEK/TAL6 DNA immunized mice stimulated with TAL6 peptides; type: in vivo; conditions: splenocytes from pEK/TAL6-immunized mice stimulated with the peptide; FIG. 3
[3] = tested on: tumor cells EL4/TAL6/HLA-A2; assay: Tumor growth after peptide immunization and transplantation of EL4/TAL6/HLA-A2 tumor cells; type: in vivo, mice
Protocol: FIG. 4 is a chart showing inhibition of tumor growth in mice immunized by immunopeptides derived from TAL6. Tumor volume was calculated using the formula: tumor volume=length×width×width/2. Panel (a): HLA-A2 transgenic mice. Panel (b): Wild-type mice.
Peptide 2 or Peptide 5 listed in Table 1 above, mixed with IFA, was administered subcutaneously to HLA-A2 transgenic mice (50 μg/mouse) or wild-type C57BL/6 mice twice in two weeks. Twenty-one days later, each of the immunized mice was transplanted subcutaneously with 2×10^5 of tumor cells EL4/TAL6/HLA-A2 (EL4 cells stably expressing both TAL6 and HLA-A2) to induce tumor growth in the immunized mice. Sizes of the tumors in the treated mice were monitored every 2-3 days. The tumor volume was calculated using the formula: tumor volume=length×width×width/2.

[4] = tested on: human HLA-A24 and β2-microglobulin; assay: MHC-peptide complex formation assay (ELISA), HLA-A24; type: binding; conditions: MHC-peptide formation rate versus positive control peptide
[5] = tested on: T cells (spleen cells from HLA-A24 transgenic mice); assay: IFN-γ ELISpot on spleen cells of peptide-immunized HLA-A24 transgenic mice; type: in vivo, HLA-A24 transgenic mouse; conditions: HLA-A24 transgenic mice immunized as in Example 2; FIG. 2
Excerpt: FIG. 2 is a chart showing induction of interferon γ in spleen cells from HLA-A24 transgenic mice immunized with a number of immunogenic peptides from TAL6: peptides 17 (SEQ ID NO:14), 18 (SEQ ID NO:15), 20 (SEQ ID NO:16), 21 (SEQ ID NO:17), 22 (SEQ ID NO:18), 23 (SEQ ID NO:19), 24 (SEQ ID NO:20), 26 (SEQ ID NO:21), 27 (SEQ ID NO:22), 29 (SEQ ID NO:41), and 30 (SEQ ID NO:23). “N” refers to a negative control and “P” refers to a positive control.
as §1
Each of the peptides (test peptides) that were identified as HLA-A24-restricted T-cell epitopes in Examples 3 above were used to immunize HAL-A24 transgenic mice, following the procedures described in Example 2 above. EBV peptides GLC and TYG were used as a negative control and a positive control, respectively.

[6] = HLA-A2 transgenic mice, 50 μg/mouse peptide with IFA s.c. twice, FIG. 4 panel (a)

Sequence	Relative binding (%) to HLA-A24 [4]	also measured
LLMLLPAFV (Synthetic HLA-A2 restricted CTL epitope (58-66 aa of TAL6)) [Peptide 5, TAL6 position 58-66]		IFN-γ secretion of T cells [1]: induced IFN-γ secretion of T cells; IFN-γ-secreting cells activated by test TAL6 peptide [2]: responsive; Inhibition of tumor growth (tumor volume) [3, 6]: significantly inhibited tumor growth; Inhibition of tumor growth (tumor volume) ([3]; wild-type C57BL/6 mice, peptide with IFA s.c. twice, FIG. 4 panel (b)): not in the wild-type mice
EWNVSLFSI (Synthetic HLA-A24 restricted CTL epitope (157-165 aa of TAL6)) [Peptide 30, TAL6 position 157-165]	74.01%	IFN-γ secretion of T cells [5]: induced IFN-γ secretion of T cells
SLVGLALLC (Synthetic HLA-A2 restricted CTL epitope (13-21 aa of TAL6)) [Peptide 2, TAL6 position 13-21]		IFN-γ secretion of T cells [1]: induced IFN-γ secretion of T cells; IFN-γ-secreting cells activated by test TAL6 peptide [2]: responsive; Inhibition of tumor growth (tumor volume) [3, 6]: reduced tumor growth in the HLA-A2 transgenic mice, albeit in a lower level
GGIEFILCL (Synthetic HLA-A24 restricted CTL epitope (170-178 aa of TAL6)) [Peptide 32, TAL6 position 170-178]	25.29%	
EWNVSLFSIL (Synthetic HLA-A24 restricted CTL epitope (157-166 aa of TAL6)) [Peptide 31, TAL6 position 157-166]	22.24%	
QYLLDTSTW (Synthetic HLA-A24 restricted CTL epitope (138-147 aa of TAL6)) [Peptide 27, TAL6 position 138-147]	110.75%	IFN-γ secretion of T cells [5]: induced IFN-γ secretion of T cells
IAANILLYF (Synthetic HLA-A24 restricted CTL epitope (22-30 aa of TAL6)) [Peptide 19, TAL6 position 22-30]	0.00%	
TFASTEGQYL (Synthetic HLA-A24 restricted CTL epitope (131-140 aa of TAL6)) [Peptide 26, TAL6 position 131-140]	115.71%	
HSLVGLALL (Synthetic HLA-A24 restricted CTL epitope (12-20 aa of TAL6)) [Peptide 18, TAL6 position 12-20]	61.73%	
FFSGIVGGGL (Synthetic HLA-A24 restricted CTL epitope (49-57 aa of TAL6)) [Peptide 23, TAL6 position 49-57]	72.36%	
LYFPNGETKY (Synthetic HLA-A24 restricted CTL epitope (28-36 aa of TAL6)) [Peptide 20, TAL6 position 28-36]	84.95%	
TFASTEGQY (Synthetic HLA-A24 restricted CTL epitope (131-139 aa of TAL6)) [Peptide 25, TAL6 position 131-139]	49.24%	
GYCVIVAAL (Synthetic HLA-A24 restricted CTL epitope (105-113 aa of TAL6)) [Peptide 24, TAL6 position 105-113]	117.78%	
GGIEFILCLI (Synthetic HLA-A24 restricted CTL epitope (170-179 aa of TAL6)) [Peptide 33, TAL6 position 170-179]	14.85%	
KYASENHLS (Synthetic HLA-A24 restricted CTL epitope (36-44 aa of TAL6)) [Peptide 21, TAL6 position 36-44]	64.59%	
RFVWFFSGI (Synthetic HLA-A24 restricted CTL epitope (45-53 aa of TAL6)) [Peptide 22, TAL6 position 45-53]	91.88%	
IVEWNVSLF (Synthetic HLA-A24 restricted CTL epitope (155-163 aa of TAL6)) [Peptide 29, TAL6 position 155-163]	41.01%	IFN-γ secretion of T cells [5]: induced IFN-γ secretion of T cells
CYGKCARCI (Synthetic HLA-A24 restricted CTL epitope (2-10 aa of TAL6)) [Peptide 17, TAL6 position 2-10]	125.73%	
HIVEWNVSLF (Synthetic HLA-A24 restricted CTL epitope (154-163 aa of TAL6)) [Peptide 28, TAL6 position 154-163]	28.03%	
